Measured values published in PubChem BioAssay AID330 (DTP/NCI, 2004).
“And” between values parts separate entries of the source, which are not always exact repeats. Identical values can stand only once. Inconclusive results and toxic doses are left out.

Test system: P388 leukemia ip, CD2F1 mice, survival T/C
Assay: NCI In Vivo Anticancer Drug Screen. Data for tumor model P388 Leukemia (intraperitoneal) in CD2F1 (CDF1) mice
Conditions: endpoint: median survival time, higher = longer survival
Procedure, shortened: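 Mice carrying the transplanted tumor received test compound or vehicle. Survival was recorded in each group, and the value is the treated-group measurement divided by that of the vehicle-treated control group.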

[1] = dose: 12.5 mg/kg/injection, schedule: Q01DX009 (ip), vehicle: saline
[2] = dose: 25.0 mg/kg/injection, schedule: Q01DX009 (ip), vehicle: saline
[3] = dose: 50.0 mg/kg/injection, schedule: Q01DX009 (ip), vehicle: saline
[4] = dose: 50.0 mg/kg/injection, schedule: Q01DX005 (ip), vehicle: saline with Tween-80
[5] = dose: 100.0 mg/kg/injection, schedule: Q01DX005 (ip), vehicle: saline with Tween-80
[6] = dose: 200.0 mg/kg/injection, schedule: Q01DX005 (ip), vehicle: saline with Tween-80
[7] = dose: 50.0 mg/kg/injection, schedule: Q01DX009 (ip), vehicle: saline with Tween-80
[8] = dose: 100.0 mg/kg/injection, schedule: Q01DX009 (ip), vehicle: saline with Tween-80
[9] = dose: 200.0 mg/kg/injection, schedule: Q01DX009 (ip), vehicle: saline with Tween-80
[10] = dose: 50.0 mg/kg/injection, schedule: Q01DX009 (ip), vehicle: Klucel (hydroxypropylcellulose) (HPC)
[11] = dose: 100.0 mg/kg/injection, schedule: Q01DX009 (ip), vehicle: Klucel (hydroxypropylcellulose) (HPC)
[12] = dose: 200.0 mg/kg/injection, schedule: Q01DX009 (ip), vehicle: Klucel (hydroxypropylcellulose) (HPC)
[13] = dose: 60.0 mg/kg/injection, schedule: Q01DX005 (ip), vehicle: saline
[14] = dose: 120.0 mg/kg/injection, schedule: Q01DX005 (ip), vehicle: saline
[15] = dose: 240.0 mg/kg/injection, schedule: Q01DX005 (ip), vehicle: saline
[16] = dose: 100.0 mg/kg/injection, schedule: Q01DX009 (ip), vehicle: saline
[17] = dose: 50.0 mg/kg/injection, schedule: Q01DX005 (ip), vehicle: Klucel (hydroxypropylcellulose) (HPC)
[18] = dose: 100.0 mg/kg/injection, schedule: Q01DX005 (ip), vehicle: Klucel (hydroxypropylcellulose) (HPC)
[19] = dose: 200.0 mg/kg/injection, schedule: Q01DX005 (ip), vehicle: Klucel (hydroxypropylcellulose) (HPC)

Compound: F[B-](F)(F)F
- T/C (dose: 12.5 mg/kg/injection, schedule: Q01DX009 (ip), vehicle: gum acacia): 111 % of control
- T/C (dose: 25.0 mg/kg/injection, schedule: Q01DX009 (ip), vehicle: gum acacia): 118 % of control
- T/C (dose: 50.0 mg/kg/injection, schedule: Q01DX009 (ip), vehicle: gum acacia): 109 % of control and 114 % of control
- T/C (dose: 100.0 mg/kg/injection, schedule: Q01DX009 (ip), vehicle: gum acacia): 123 % of control

Compound: Oc1[nH]c2ccccc2c1N=NC(=S)SCc1ccccc1
- T/C [1]: 89 % of control
- T/C [2]: 87 % of control
- T/C [3]: 90 % of control

Compound: CN(C)Nc1ncnc2c1ncn2C
- T/C [4]: 103 % of control
- T/C [5]: 100 % of control
- T/C [6]: 97 % of control

Compound: CCOC(=O)C(=O)c1cn(C)c(=O)n(C)c1=O
- T/C [7]: 106 % of control
- T/C [8]: 104 % of control
- T/C [9]: 104 % of control

Compound: c1ccc2c(Oc3c4ccccc4nc4ccccc34)c3ccccc3nc2c1
- T/C [4]: 95 % of control
- T/C [5]: 88 % of control
- T/C [6]: 90 % of control

Compound: O=C1c2ccccc2S(=O)(=O)N1CCN(CCN1C(=O)c2ccccc2S1(=O)=O)c1ccccc1
- T/C [10]: 92 % of control
- T/C [11]: 100 % of control
- T/C [12]: 100 % of control

Compound: C[N+](C)(C)N=P(O)(N[N+](C)(C)C)c1ccccc1 (centres undefined)
- T/C [13]: 104 % of control
- T/C [14]: 104 % of control
- T/C [15]: 103 % of control

Compound: COc1cc(NCCCCC(C)N)c2nccc(C)c2c1 (centres undefined)
- T/C [1]: 94 % of control
- T/C [2]: 92 % of control

Compound: CC1(C)OC(CC(=O)O)C23COC(C(=O)C4(C)C2CCC2(C)C(c5ccoc5)OC(=O)C5OC524)C13 (centres undefined)
- T/C (dose: 0.75 mg/kg/injection, schedule: Q01DX009 (ip), vehicle: saline + alcohol): 106 % of control
- T/C (dose: 1.5 mg/kg/injection, schedule: Q01DX009 (ip), vehicle: saline + alcohol): 99 % of control
- T/C (dose: 3.0 mg/kg/injection, schedule: Q01DX009 (ip), vehicle: saline + alcohol): 101 % of control
- T/C (dose: 6.0 mg/kg/injection, schedule: Q01DX009 (ip), vehicle: saline + alcohol): 101 % of control

Compound: Clc1ccc(/C=C/c2ccc3ccccc3n2)cc1
- T/C [10]: 109 % of control
- T/C [11]: 102 % of control
- T/C [12]: 107 % of control
- T/C (dose: 400.0 mg/kg/injection, schedule: Q01DX009 (ip), vehicle: Klucel (hydroxypropylcellulose) (HPC)): 93 % of control

Compound: C/C(=N\N)C1=NNC(C)(C)NN1
- T/C [10]: 96 % of control
- T/C [11]: 96 % of control
- T/C [12]: 98 % of control

Compound: COC(=O)c1ccc(C(=O)OC)c2nc3cc(C)c(C)cc3nc12
- T/C (dose: 60.0 mg/kg/injection, schedule: Q01DX005 (ip), vehicle: Klucel (hydroxypropylcellulose) (HPC)): 96 % of control
- T/C (dose: 120.0 mg/kg/injection, schedule: Q01DX005 (ip), vehicle: Klucel (hydroxypropylcellulose) (HPC)): 98 % of control

Compound: CC1C(=O)C(C)C(c2ccc(Cl)cc2)OC1c1ccc(Cl)cc1 (centres undefined)
- T/C [3]: 112 % of control
- T/C [16]: 103 % of control
- T/C (dose: 200.0 mg/kg/injection, schedule: Q01DX009 (ip), vehicle: saline): 114 % of control

Compound: CC1=NN(c2ccc(S(=O)(=O)O)cc2)C(=O)/C1=C/c1ccc(Cl)cc1
- T/C (dose: 50.0 mg/kg/injection, schedule: Q04DX003 (ip), vehicle: saline sonified): 100 % of control
- T/C (dose: 100.0 mg/kg/injection, schedule: Q04DX003 (ip), vehicle: saline sonified): 100 % of control
- T/C (dose: 200.0 mg/kg/injection, schedule: Q04DX003 (ip), vehicle: saline sonified): 95 % of control

Compound: CCCC1CC[N-]CC1.CCCC1CC[N-]CC1.CCCC1CC[N-]CC1.CCCC1CC[N-]CC1.CS(C)=O.CS(C)=O.[Cl-].[Cl-].[Cl-].[Cl-].[Cl][Rh][Cl].[Rh+3]
- T/C (dose: 3.13 mg/kg/injection, schedule: Q01DX009 (ip), vehicle: saline): 117 % of control
- T/C (dose: 12.5 mg/kg/injection, schedule: Q01DX009 (ip), vehicle: saline with Tween-80): 123 % of control

Compound: Cc1onc(-c2c(Cl)cccc2Cl)c1C(=O)OCCOc1ccc(C(F)(F)F)cc1[N+](=O)[O-]
- T/C (dose: 60.0 mg/kg/injection, schedule: Q01DX005 (ip), vehicle: saline with Tween-80): 91 % of control
- T/C (dose: 120.0 mg/kg/injection, schedule: Q01DX005 (ip), vehicle: saline with Tween-80): 98 % of control
- T/C (dose: 240.0 mg/kg/injection, schedule: Q01DX005 (ip), vehicle: saline with Tween-80): 92 % of control

Compound: COC(c1nc(N)no1)c1c(Cl)cccc1Cl (centres undefined)
- T/C [17]: 97 % of control
- T/C [18]: 91 % of control
- T/C [19]: 92 % of control

Compound: NC(=O)c1[nH]ncc1C1OCCC1O (centres undefined)
- T/C (dose: 100.0 mg/kg/injection, schedule: Q01DX001 (ip), vehicle: saline with Tween-80): 100 % of control
- T/C (dose: 200.0 mg/kg/injection, schedule: Q01DX001 (ip), vehicle: saline with Tween-80): 100 % of control
- T/C (dose: 400.0 mg/kg/injection, schedule: Q01DX001 (ip), vehicle: saline with Tween-80): 100 % of control

Compound: OCC1OC2OC3C(CO)OC(OC4C(CO)OC(OC5C(CO)OC(OC6C(CO)OC(OC7C(CO)OC(OC8C(CO)OC(OC1C(O)C2O)C(O)C8O)C(O)C7O)C(O)C6O)C(O)C5O)C(O)C4O)C(O)C3O (centres undefined)
- T/C [3]: 100 % of control
- T/C [16]: 94 % of control

Compound: CCCCCCCCCCCCCCCCSc1ccc(N=Cc2ccc(N(CC)CC#N)cc2)cc1
- T/C [7]: 97 % of control
- T/C [8]: 94 % of control

Compound: CN1C=CC2C(C#N)CC2C1=O (centres undefined)
- T/C (dose: 100.0 mg/kg/injection, schedule: Q04DX002 (ip), vehicle: saline with Tween-80): 101 % of control
- T/C (dose: 200.0 mg/kg/injection, schedule: Q04DX002 (ip), vehicle: saline with Tween-80): 110 % of control
- T/C (dose: 400.0 mg/kg/injection, schedule: Q04DX002 (ip), vehicle: saline with Tween-80): 110 % of control

Compound: Nn1c(=S)[nH]nc(/C=C/c2ccc3c(c2)OCO3)c1=O
- T/C [7]: 89 % of control
- T/C [8]: 91 % of control
- T/C [9]: 98 % of control

Compound: COc1ccc(/C=N/N2C(=O)c3ccccc3C2=O)cc1
- T/C [17]: 105 % of control
- T/C [18]: 93 % of control
- T/C [19]: 100 % of control

Compound: CC1=NNC(=O)CC1C(O)c1ccccc1 (centres undefined)
- T/C [13]: 114 % of control
- T/C [14]: 101 % of control
- T/C [15]: 107 % of control

Compound: Cc1cc(N=Nc2cc(C)c(NC(=O)c3ccc(NC(=O)c4ccc(N)cc4)cc3)cc2C)ccc1N=Nc1ccc2cc(S(=O)(=O)O)cc(S(=O)(=O)O)c2c1
- T/C [4]: 110 % of control
- T/C [5]: 111 % of control
- T/C [6]: 110 % of control

Compound: C[C@@H]1CC[C@]2(C)CC[C@]3(C)C(=CC[C@@H]4[C@@]5(C)CC[C@H](O)C(C)(C)[C@@H]5CC[C@]43C)[C@@H]2[C@H]1C(=O)O
- T/C (dose: 0.5 mg/kg/injection, schedule: Q01DX005 (ip), vehicle: DMSO): 99 % of control
- T/C (dose: 1.0 mg/kg/injection, schedule: Q01DX005 (ip), vehicle: DMSO): 101 % of control
- T/C (dose: 2.0 mg/kg/injection, schedule: Q01DX005 (ip), vehicle: DMSO): 100 % of control
- T/C (dose: 4.0 mg/kg/injection, schedule: Q01DX005 (ip), vehicle: DMSO): 100 % of control and 108 % of control
- T/C (dose: 8.0 mg/kg/injection, schedule: Q01DX005 (ip), vehicle: DMSO): 98 % of control

Compound: CCCCN(CCCC)CCCN(CCCOS(C)(=O)=O)CCCOS(C)(=O)=O
- T/C (dose: 20.0 mg/kg/injection, schedule: Q01DX009 (ip), vehicle: saline): 181 % of control and 185 % of control
- T/C (dose: 40.0 mg/kg/injection, schedule: Q01DX009 (ip), vehicle: saline): 231 % of control and 236 % of control

Compound: CCCCC(NC(C)=O)C(=O)O (centres undefined)
- T/C [7]: 99 % of control and 95 % of control
- T/C [8]: 98 % of control
- T/C [9]: 100 % of control and 96 % of control
- T/C (dose: 400.0 mg/kg/injection, schedule: Q01DX009 (ip), vehicle: saline with Tween-80): 100 % of control
